Measured values from patent publication US20260217672A1, “BENZAMIDE COMPOUNDS FOR TREATMENT OF BACTERIAL INFECTIONS” (Hoffmann-La Roche Inc., priority 2022, published 2026).
In brackets after ≈: the same amount, converted by molar mass.

Legend:
[1] = system: Klebsiella pneumonia ATCC 43816; experiment: Minimal Inhibitory Concentration (MIC) broth dilution assay; format: cell-based; conditions: Klebsiella pneumoniae, ATCC43816, 20 h, read-out: MIC Klebsiella pneumoniae ATCC43816
Procedure: (§1) The antibacterial activity of the compounds of the present invention was evaluated against the commonly used quality control strain Escherichia coli ATCC 25922 and the rifampin-resistant mutant strain Klebsiella pneumonia ATCC 43816. Both were originally derived from human clinical samples and are available from ATCC (American Type Culture Collection). The in vitro potency of compounds to inhibit Escherichia coli (ATCC 25922) and Klebsiella pneumonia (ATCC 43816) growth was assessed by the MIC (Minimal Inhibitory Concentration) broth dilution method. Specifically compound dilutions were prepared from 10 mM DMSO stock solutions as follows: i) serial 2-fold dilution in 20 μL DMSO were prepared in a master plate (Greiner, Cat No: 651201), ii) 180 μL sterile distilled water was added to each aliquot and iii) 10 μL diluted compounds were transferred into a new assay plate (Costar, 3599).
(§2) Vials of each test microorganisms were maintained frozen in the vapor phase of a liquid nitrogen freezer. Single-use frozen vials of the two strains Escherichia coli ATCC 25922 (KWIKSTIK, 0335K) and Klebsiella pneumonia ATCC 43816, with predetermined CFU/mL, were taken out from the freezer, thawed at room temperature, and diluted in Cation-Adjusted Mueller Hinton Broth (CAMHB) to achieve a final inoculum of 5×10^5 CFU/mL. 90 μL bacteria containing broth was dispensed to the assay plate containing the pre-dispensed compound dilutions and mixed by pipetting 5 times.
(§3) Then the assay plates were incubated for 20 hours at 35° C. in ambient air. Following incubation, the MIC ([…]), the lowest concentration of drug that inhibits visible growth of the microorganism was read with the help of a magnification mirror and recorded.

[2] = system: Escherichia coli ATCC 25922; experiment: as above; format: cell-based; conditions: ATCC25922, 20 h, read-out: MIC Escherichia coli ATCC 25922
Procedure: as §1, §2, §3

Compound	MIC [1]	MIC [2]
Cn1cc2c(n1)CN(C(=O)Nc1ccc(S(=O)(=O)N3CCN(c4cc(C(F)(F)F)cc(Cl)n4)CC3)cc1)C2 [Example 032, N-[4-[4-[6-chloro-4-(trifluoromethyl)-2-pyridyl]piperazin-1-yl]sulfonylphenyl]-2-methyl-4,6-dihydropyrrolo[3,4-c]pyrazole-5-carboxamide]	7.1 µg/mL (≈ 12.5 µM)	7.1 µg/mL (≈ 12.5 µM)
NC1Cc2ccc(C(=O)Nc3ccc(S(=O)(=O)N4CCN(c5cc(C(F)(F)F)cc(Cl)n5)CC4)cc3)cc2C1 (centres unmarked) [Example 055, 2-Amino-N-[4-[4-[6-chloro-4-(trifluoromethyl)-2-pyridyl]piperazin-1-yl]sulfonylphenyl]indane-5-carboxamide]	0.91 µg/mL (≈ 1.57 µM)	0.45 µg/mL (≈ 0.776 µM)
Cn1ncc2c1CN(C(=O)Nc1ccc(S(=O)(=O)N3CCN(c4cc(C(F)(F)F)cc(Cl)n4)CC3)cc1)C2 [Example 033, N-[4-[4-[6-chloro-4-(trifluoromethyl)-2-pyridyl]piperazin-1-yl]sulfonylphenyl]-1-methyl-4,6-dihydropyrrolo[3,4-c]pyrazole-5-carboxamide]	3.6 µg/mL (≈ 6.32 µM)	3.6 µg/mL (≈ 6.32 µM)
NCCC(N)C(=O)Nc1cccc(C(=O)Nc2ccc(S(=O)(=O)N3CCN(c4cc(C(F)(F)F)cc(Cl)n4)CC3)cc2)c1 (centres unmarked) [Example 057, N-[4-[4-[6-chloro-4-(trifluoromethyl)-2-pyridyl]piperazin-1-yl]sulfonylphenyl]-3-(2,4-diaminobutanoylamino)benzamide]	2 µg/mL (≈ 3.12 µM)	1 µg/mL (≈ 1.56 µM)
NCCCNC1Cc2ccc(C(=O)Nc3ccc(S(=O)(=O)N4CCN(c5cc(C(F)(F)F)cc(Cl)n5)CC4)cc3)cc2C1 (centres unmarked) [Example 061, 2-(3-Aminopropylamino)-N-[4-[4-[6-chloro-4-(trifluoromethyl)-2-pyridyl]piperazin-1-yl]sulfonylphenyl]indane-5-carboxamide]	1.1 µg/mL (≈ 1.73 µM)	0.53 µg/mL (≈ 0.832 µM)
NCCCNC1CCc2ccc(C(=O)Nc3ccc(S(=O)(=O)N4CCN(c5cc(C(F)(F)F)cc(Cl)n5)CC4)cc3)cc21 (centres unmarked) [Example 062, 3-(3-Aminopropylamino)-N-[4-[4-[6-chloro-4-(trifluoromethyl)-2-pyridyl]piperazin-1-yl]sulfonylphenyl]indane-5-carboxamide]	4.2 µg/mL (≈ 6.59 µM)	2.1 µg/mL (≈ 3.3 µM)
CC(F)(F)c1cc(Cl)nc(N2CCN(S(=O)(=O)c3ccc(NC(=O)c4ccc(CCNCCCN)cc4)cc3)CC2)c1 [Example 017, 4-[2-(3-Aminopropylamino)ethyl]-N-[4-[4-[6-chloro-4-(1,1-difluoroethyl)-2-pyridyl]piperazin-1-yl]sulfonylphenyl]benzamide]	0.97 µg/mL (≈ 1.56 µM)	0.97 µg/mL (≈ 1.56 µM)
NCCc1cccc(C(=O)Nc2ccc(S(=O)(=O)N3CCN(c4cc(C(F)(F)F)cc(Cl)n4)CC3)cc2)c1 [Example 053, 3-(2-Aminoethyl)-N-[4-[4-[6-chloro-4-(trifluoromethyl)-2-pyridyl]piperazin-1-yl]sulfonylphenyl]benzamide]	0.89 µg/mL (≈ 1.57 µM)	0.44 µg/mL (≈ 0.775 µM)
NCC12CC1CN(Cc1cccc(C(=O)Nc3ccc(S(=O)(=O)N4CCN(c5cc(C(F)(F)F)cc(Cl)n5)CC4)cc3)c1)C2 (centres unmarked) [Example 082, 3-[[1-(Aminomethyl)-3-azabicyclo[3.1.0]hexan-3-yl]methyl]-N-[4-[4-[6-chloro-4-(trifluoromethyl)-2-pyridyl]piperazin-1-yl]sulfonylphenyl]benzamide]	1.4 µg/mL (≈ 2.16 µM)	0.69 µg/mL (≈ 1.06 µM)
NCCCNCc1ccc(C(=O)Nc2ccc(S(=O)(=O)N3CCN(c4cc(Br)cc(Cl)n4)CC3)cc2)cc1 [Example 007, 4-[(3-Aminopropylamino)methyl]-N-[4-[4-(4-bromo-6-chloro-2-pyridyl)piperazin-1-yl]sulfonylphenyl]benzamide]	0.97 µg/mL (≈ 1.56 µM)	0.97 µg/mL (≈ 1.56 µM)
NCCCNCc1ccc(C(=O)Nc2ccc(S(=O)(=O)N3CCN(c4cc(Cl)cc(C(F)(F)F)c4)CC3)cc2)cc1 [Example 004, 4-[(3-Aminopropylamino)methyl]-N-[4-[4-[3-chloro-5-(trifluoromethyl)phenyl]piperazin-1-yl]sulfonylphenyl]benzamide]	3.8 µg/mL (≈ 6.23 µM)	1.9 µg/mL (≈ 3.11 µM)
NCCCNC1CCc2cc(C(=O)Nc3ccc(S(=O)(=O)N4CCN(c5cc(C(F)(F)F)cc(Cl)n5)CC4)cc3)ccc21 (centres unmarked) [Example 064, 1-(3-Aminopropylamino)-N-[4-[4-[6-chloro-4-(trifluoromethyl)-2-pyridyl]piperazin-1-yl]sulfonylphenyl]indane-5-carboxamide]	4.2 µg/mL (≈ 6.59 µM)	2.1 µg/mL (≈ 3.3 µM)
O=C(c1cnn2c1CNCC2)N1CCc2cc(S(=O)(=O)N3CCN(c4cc(C(F)(F)F)cc(Cl)n4)CC3)ccc21 [Example 038, [5-[4-[6-Chloro-4-(trifluoromethyl)-2-pyridyl]piperazin-1-yl]sulfonylindolin-1-yl]-(4,5,6,7-tetrahydropyrazolo[1,5-a]pyrazin-3-yl)methanone]	7.4 µg/mL (≈ 12.4 µM)	3.7 µg/mL (≈ 6.21 µM)
NCCC1CCCN1Cc1ccc(C(=O)Nc2ccc(S(=O)(=O)N3CCN(c4cc(C(F)(F)F)cc(Cl)n4)CC3)cc2)cc1 (stereo in doubt) [Example 072, N-[4-[4-[6-chloro-4-(trifluoromethyl)-2-pyridyl]piperazin-1-yl]sulfonylphenyl]-4-[[(2S)-2-(2-aminoethyl)pyrrolidin-1-yl]methyl]benzamide]	2 µg/mL (≈ 3.07 µM)	1 µg/mL (≈ 1.54 µM)
O=C(c1cnn(C2CNC2)c1)N1CCc2cc(S(=O)(=O)N3CCN(c4cc(C(F)(F)F)cc(Cl)n4)CC3)ccc21 [Example 036, [1-(Azetidin-3-yl)pyrazol-4-yl]-[5-[4-[6-chloro-4-(trifluoromethyl)-2-pyridyl]piperazin-1-yl]sulfonylindolin-1-yl]methanone]	7.4 µg/mL (≈ 12.4 µM)	3.7 µg/mL (≈ 6.21 µM)
NCCCNCc1cccc(C(=O)Nc2ccc(S(=O)(=O)N3CCN(c4cc(C(F)(F)F)cc(Cl)n4)CC3)cc2)n1 [Example 059, 6-[(3-Aminopropylamino)methyl]-N-[4-[4-[6-chloro-4-(trifluoromethyl)-2-pyridyl]piperazin-1-yl]sulfonylphenyl]pyridine-2-carboxamide]	3.8 µg/mL (≈ 6.21 µM)	1.9 µg/mL (≈ 3.1 µM)
NCCCNCc1ccc(C(=O)Nc2ccc(S(=O)(=O)N3CCN(c4cc(C(F)(F)F)cc(OC5CC5)n4)CC3)cc2)cc1 [Example 009, 4-[(3-Aminopropylamino)methyl]-N-[4-[4-[6-(cyclopropoxy)-4-(trifluoromethyl)-2-pyridyl]piperazin-1-yl]sulfonylphenyl]benzamide]	11 µg/mL (≈ 17.4 µM)	5.4 µg/mL (≈ 8.53 µM)
COc1ccc(CN2CCC3CNCC32)cc1C(=O)Nc1ccc(S(=O)(=O)N2CCN(c3cc(C(F)(F)F)cc(Cl)n3)CC2)cc1 (centres unmarked) [Example 087, 5-(3,3a,4,5,6,6a-Hexahydro-2H-pyrrolo[3,4-b]pyrrol-1-ylmethyl)-N-[4-[4-[6-chloro-4-(trifluoromethyl)-2-pyridyl]piperazin-1-yl]sulfonylphenyl]-2-methoxy-benzamide]	2.5 µg/mL (≈ 3.68 µM)	1.2 µg/mL (≈ 1.77 µM)
NCCCNCc1cccc(C(=O)Nc2ccc(S(=O)(=O)N3CCN(c4cc(C(F)(F)F)cc(Cl)n4)CC3)cc2)c1 [Example 024, 3-[(3-Aminopropylamino)methyl]-N-[4-[4-[6-chloro-4-(trifluoromethyl)-2-pyridyl]piperazin-1-yl]sulfonylphenyl]benzamide]	0.96 µg/mL (≈ 1.57 µM)	0.48 µg/mL (≈ 0.785 µM)
